# Columns and labels:
# [1] = tested on: mPTP; assay: mPTP activity (Ca2+ retention) assay in isolated rat liver mitochondria; type: biochemical; conditions: for mPTP Rat liver pIC50: examples tested by different contract research organisations, believed comparable
# Outline: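 pIC50 was taken from Fluo5N fluorescence at 10 min after a 75 μM CaCl2 bolus, scaled between DMSO (0%) and 5 μM cyclosporin A (100%). Compounds, ten half-log concentrations from 30 μM to 1 nM final, sat 10 min at RT with fresh female Sprague Dawley rat liver mitochondria energized by succinate plus rotenone.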
# [2] = tested on: mPTP; assay: mPTP activity assay in isolated rat brain mitochondria; type: biochemical; conditions: fluorescence at 10 min timepoint
# Outline: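 Fresh brain mitochondria from female Sprague Dawley rats, digitonin-washed, in pH 7.4 mannitol/MOPS/KCl buffer with pyruvate, malate, ADP, oligomycin A and 2 μM Fluo5N. Preincubated with compounds 10 min at RT. Fluo5N fluorescence then read every 3 sec for 10 min on FLIPR Tetra.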
# [3] = tested on: mPTP; assay: Human platelet mitochondria assay (annexin V / PS exposure by flow cytometry); type: cell-based; conditions: human blood platelets stimulated with thrombin/convulxin/calcium; % AnV-APC positive platelets
# Description: The mPTP cell based assay was performed using a transformative functional cell-(human blood platelets)-based assay by flow cytometry. Procoagulant platelets expose phosphatidylserine (PS), allowing a burst of thrombin generation that is responsible for producing an occlusive thrombus. While an increase in cytosolic Ca^2+ concentration is required for deriving platelets to become activated, a higher and more sustained increases in cytosolic Ca^2+ concentration is needed to commit some platelets to becoming procoagulant. Simulation of platelets results in the rapid influx of Ca^2+ across the platelet membrane. The Ca^2+ is then sequestered by mitochondria until the threshold for mPTP opening is reached, at which point the pore opens and the mitochondrial membrane potential is dissipated. mPTP opening and subsequent disruption in mitochondrial membrane potential leads to release of a high concentration of calcium stored in mitochondria into the platelet's cytosol (“supramaximal calcium signal” [1]) which is known to be a requisite initiating signal transduction leading to externalisation of procoagulant PS to the outer leaflet of platelets' plasma membrane. PS externalisation of stimulated platelets can be quantified in live platelets using standard annexin V (AnV) labelling by flow cytometry, enabling pharmacological characterisation of mPTP inhibitors.
# Fresh human blood (9 ml) was collected from consenting donors into 3.2% sodium citrate. Acid citrate dextrose (85 mM tri-sodium citrate, 71 mM citric acid, and 111 mM D-glucose) was added (1:7 vol/vol) and platelet-rich plasma was separated by centrifugation (200 g, 10 minutes, ambient temperature, and without any brake). Platelets were pelleted by centrifugation (600 g, 10 minutes, ambient temperature) in the presence of prostaglandin E1 (100 nM) and apyrase (0.02 U/mL). Pelleted platelets were resuspended in N-2-hydroxyethylpiperazine-N′-2-ethanesulfonic acid (HEPES)-buffered saline supplemented with D-glucose (135 mM NaCl, 10 mM HEPES, 3 mM KCl, 1 mM MgCl2, 0.34 mM NaH2PO4, 5 mM D-glucose, 0.1% bovine serum albumin, pH 7.4.) and apyrase (0.02 U/mL). Platelets were rested for 30 minutes at 30° C. before treatment protocols were initiated.
# Test compounds were prepared from 10 mM stocks in DMSO. Serial dilution of search test compounds stamped in duplicate into a 96 well plate using Multidrop Pico 8 Digital Dispenser. Platelets were loaded and incubated for 30 min at room temperature. Then a stimulation mix containing Thrombin (FAC: 0.5 U/ml)/Convulxin (FAC: 0.05 μg/ml)/Calcium (FAC: 2 mM) added per well except control/not stimulated wells (This is low signal control). Some wells received no treatment but DMSO vehicle control and used as high signal controls (FAC of DMSO set at 0.1% in all wells of the 96 well plate). The reaction mix incubated for 10 min at room temperature. During last 2 min of stimulation AnV-APC was added to detect surface PS exposure. Samples ten fixed and fluorescence was detected by MACSQuant X flow cytometry and 10 000 platelet events were collected. The percentage of AnV-APC positive platelets was calculated for each well. IC50 for each compound was then calculated using a standard four parameter curve fit model (GraphPad Prism).
Structure (SMILES),mPTP Rat liver pIC50 [1],mPTP Rat brain pIC50 [2],pIC50 [3],mPTP pIC50 rat liver mitochondria ([1]; Fluo5N fluorescence at 10 min after 75 μM CaCl2)
"CC(c1ccccc1)C1(CNC(=O)c2nn(C)c(=O)[nH]2)CCC1 (single isomer, unassigned) [Example 26, 1-methyl-5-oxo-N-((1-(1-phenylethyl)cyclobutyl)methyl)-4,5-dihydro-1H-1,2,4-triazole-3-carboxamide]",6.87,7.60,6.77,–
"CC(c1ccccc1)C1(CNC(=O)c2nn(C)c(=O)[nH]2)CCC1 (single isomer, unassigned) [Example 27, 1-methyl-5-oxo-N-((1-(1-phenylethyl)cyclobutyl)methyl)-4,5-dihydro-1H-1,2,4-triazole-3-carboxamide]",5.49,6.25,5.70,–
"O=C(NCC1(Cc2ccc(F)cc2F)CC12CC2)c1nccc(=O)[nH]1 (single isomer, unassigned) [Example 235]",6.79,7.65,7.31,–
"Cn1nc(C(=O)NCC(C)(Cc2ccc(F)cc2F)C2CC2)[nH]c1=O (single isomer, unassigned) [Example 239, N-(2-cyclopropyl-3-(2,4-difluorophenyl)-2-methylpropyl)-1-methyl-5-oxo-4,5-dihydro-1H-1,2,4-triazole-3-carboxamide]",7.10,8.07,7.39,–
"CC(CNC(=O)c1nccc(=O)[nH]1)(Cc1ccc(F)cc1F)C1CC1 (single isomer, unassigned) [Example 243, N-(2-cyclopropyl-3-(2,4-difluorophenyl)-2-methylpropyl)-6-oxo-1,6-dihydropyrimidine-2-carboxamide]",6.91,7.93,7.36,–
"CC(CNC(=O)c1nccc(=O)[nH]1)(Cc1ccc(F)cc1F)C1CC1 (single isomer, unassigned) [Example 244, N-(2-cyclopropyl-3-(2,4-difluorophenyl)-2-methylpropyl)-6-oxo-1,6-dihydropyrimidine-2-carboxamide]",6.73,7.53,7.14,–
"O=C(NCC1(Cc2ccc(F)cc2F)CC(F)C1)c1nccc(=O)[nH]1 (single isomer, unassigned) [Example 247]",6.27,7.26,6.52,–
"CC(CNC(=O)c1nccc(=O)[nH]1)(Cc1ccc(F)cc1)C1CC1 (single isomer, unassigned) [Example 252]",6.82,7.91,7.42,–
"Cn1nc(C(=O)NCC2(Cc3ccc(F)cc3F)CCC2)[nH]c1=O [Example 22, N-((1-(2,4-difluorobenzyl)cyclobutyl)methyl)-1-methyl-5-oxo-4,5-dihydro-1H-1,2,4-triazole-3-carboxamide]",6.79,7.75,7.14,–
"Cn1nc(C(=O)NC[C@H](Cc2ccc(F)cc2F)C2CC2)[nH]c1=O [Example 96, (R)—N-(2-Cyclopropyl-3-(2,4-difluorophenyl)propyl)-1-methyl-5-oxo-4,5-dihydro-1H-1,2,4-triazole-3-carboxamide]",6.76,7.91,7.43,–
"Cn1nc(C(=O)NC[C@H](Cc2c(F)cc(F)cc2F)C2CC2)[nH]c1=O [Example 117, (R)—N-(2-cyclopropyl-3-(2,4,6-trifluorophenyl)propyl)-1-methyl-5-oxo-4,5-dihydro-1H-1,2,4-triazole-3-carboxamide]",6.47,7.56,6.90,–
Cn1nc(C(=O)NC[C@H](Cc2ccc(F)cc2)C2CC2)[nH]c1=O [Example 190],7.31,7.75,7.23,highest activity
O=C(NC[C@@H](Cc1ccc(F)cc1)C1CC1)c1nccc(=O)[nH]1 [Example 249],–,–,6.52,–
